From patent US20220373437A1, “SYSTEM FOR EVALUATING CHEMO-PREVENTIVE POTENTIAL OF PHC AND ITS PREPARED CHITOSAN NANOPARTICLES” (priority 2022, published 2022)

Legend:
Type in all cases: in vivo, Wistar rats
[1] = test system: DEN induced hepatocellular carcinoma; assay: Macroscopic hepatic nodule incidence in DEN + CCl4 induced HCC rats; details: DEN 200 mg/kg i.p. + weekly CCl4 s.c., 16 weeks, HCC control group 6-7 nodules, normal control none
Description: (§1) In an embodiment, an injection 106 is used for inducing Hepatocellular Carcinoma (HCC), wherein for the induction of HCC, rats administered single intraperitoneal injection of DEN (200 mg/kg body weight) followed by weekly subcutaneous injections of carbon tetrachloride (3 ml/kg body weight) for 6 weeks, wherein the rats are divided into eight groups, from which group 1 is served as normal control, and group 2-8 are given single dose of DEN and repeated dose of CCl4 till the completion of the experimental duration of 16 weeks, wherein freshly prepared solution of DEN in normal saline is used for the induction of HCC in rats by administering 200 mg/kg, i.p., PHC (2:1:1) is dispersed in normal saline suspension to administer at doses of 900 mg/kg, p.o and 1935 mg/kg p.o. Soranib (Sorafenib 200 mg) tablets are powdered and dissolve in normal saline solution and the freshly prepared solution is used as standard drug.
In another embodiment, all the rats are allowed to consume commercial pellet diet during the course of the study, wherein eight groups of rat are differentiated into six groups consisting of eight rats and two groups consisting of twelve rats.
In one embodiment, a refrigerator 124 is coupled to the treatment unit 110 for storing the tissues at −20° C. and observing the presence of nodules using the UV spectrophotometer 114. […]

[2] = test system: DEN induced hepatocellular carcinoma; assay: Liver histopathology (H and E stained sections) in DEN + CCl4 induced HCC rats; details: 16 weeks
Description: as §1
(§2) In an embodiment, a collection unit 108 is used for collecting serum and tissue samples after anesthetizing overnight fasted rats using intraperitoneal administration of thiopentone sodium at a dose of 40 mg/kg, wherein the blood sample is collected by retro-orbital plexus followed by cardiac puncture.
In one embodiment, a micropipette 122 is coupled to the treatment unit 110 for pouring formalin solution for histopathological examination. […]

[3] = test system: DEN induced hepatocellular carcinoma; assay: Total bilirubin, total protein, albumin, globulin and A/G ratio in DEN + CCl4 induced HCC rats; details: ANOVA followed by Dunnett's t-test vs HCC group
Description: as §1, §2
In another embodiment, the treatment unit 110 comprises a centrifuge 116 for centrifugating the collected sample of blood at 3000 rpm for 10 minutes to separate the serum, which is kept at −20° C. until further analysis.
In another embodiment, the live markers are selected from a group comprising Alanine Aminotransaminase (ALT)/Serum Glutamate Pyruvate Transaminase (SGPT), Aspartate Aminotransaminase (AST)/Serum Glutamate Oxaloacetate Transaminase (SGOT), Alkaline Phosphatase (ALP), Lactate dehydrogenase (LDH), total protein, albumin, globulin and total bilirubin.
FIG. 6 illustrates effect on total bilirubin, total protein, albumin and globulin in control and experimental groups in accordance with an embodiment of the present disclosure. All values are expressed as mean±Standard deviation (SD) (n=6) except n=5 in Plant ‘c’ group. Statistical analysis is done using One way Analysis of Variance (ANOVA) followed by Dunnett's t-test using GraphPad Prism Version 8.0.1. Where, HCC is compared with NC group while the treatment groups (Plant ‘a’, Plant ‘b’, Plant ‘c’, PHC (2:1:1), CNP-EL and STD) are compared with HCC group. ^#P<0.0001 is very highly significant when compared with NC, ^aP<0.0001 is very highly significant, ^bP<0.001 is highly significant, ^cP<0.01 is very significant, ^dP<0.05 is significant and ns=not significant when compared with HCC group. Where NC is normal control group; HCC is hepatocellular carcinoma group; Plant ‘a’ group is Berberis aristata treated group; Plant ‘b’ group is Andrographis paniculata treated group; Plant ‘c’ group is Thevetia peruviana treated group; PHC (2:1:1) group is Polyherbal combination of 2:1:1 treated group; CNP-EL group is Chitosan nanoparticles of PHC (2:1:1) treated group and STD group is Standard Sorafenib treated group. Unit: Bilirubin: mg/dl, Total protein, Albumin and globulin: gm/dl.

[4] = test system: DEN induced hepatocellular carcinoma; assay: Lipid peroxidation (MDA) in liver tissue homogenates of DEN + CCl4 induced HCC rats; details: vs HCC group
Description: as §1
In one embodiment, a tissue homogenizer 120 is coupled to the treatment unit 110 for preparing ten percentage homogenates of liver tissue. […]
FIG. 7 illustrates effect on lipid peroxidation (LPO) in control and experimental groups in accordance with an embodiment of the present disclosure. All values are expressed as mean±Standard deviation (SD) (n=6) except n=5 in Plant ‘c’ group. […]
Malondialdehyde (MDA), an end product of LPO is assessed in the tumor tissues homogenates. […]

## CNC(=O)c1cc(Oc2ccc(NC(=O)Nc3ccc(Cl)c(C(F)(F)F)c3)cc2)ccn1 [STD, Sorafenib]
[1]
  number of macroscopically visible hepatic nodules: 0-1
[2]
  histopathology of H and E stained section of liver (40×): hepatic tissue with cytoplasm, less necrosis of cell, altered hepatocytes and hepatocellular architecture
[3]
  A/G ratio, change compared to HCC group: very highly significant (^aP<0.0001) increased
  level of albumin, change compared to HCC group: very highly significant (^aP<0.0001) increased
  level of globulin, change compared to HCC group: very highly significant (^aP<0.0001) increased
  level of total bilirubin, change compared to HCC group: very highly significantly (^aP<0.0001) decreased
  level of total protein, change compared to HCC group: very highly significant (^aP<0.0001) increased
[4]
  levels of MDA (lipid peroxidation), change compared to HCC group: very highly significant (^aP<0.0001) decreased
